Assay in all cases: Z'-LYTE kinase panel
Type in all cases: biochemical

For assay [1], the target named is T1, PAK6 (Homo sapiens, UniProt Q9NQU5).
T1 construct: purchased ThermoFisher (SelectScreen, Z'-LYTE)
The essentials:
(§1)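 Readout is percentage inhibition, obtained from the standard Z′-LYTE protocol with test compound present at 10 µM; screened within a panel of 225 kinases.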

The target in assay [2] is T2, PTK6 (Brk) (Homo sapiens, UniProt Q13882).
T2 construct: purchased ThermoFisher (SelectScreen, Z'-LYTE)
The essentials:
as §1

Assay [3] has as its target T3, JAK2 JH1 JH2 (Homo sapiens, UniProt O60674).
T3 construct: JAK2 JH1 JH2; purchased ThermoFisher (SelectScreen, Z'-LYTE)
The essentials:
as §1

In assay [4] the target is T4, MAPKAPK3 (Homo sapiens, UniProt Q16644).
T4 construct: purchased ThermoFisher (SelectScreen, Z'-LYTE)
The essentials:
as §1

Assay [5] concerns the target T5, RPS6KA1 (RSK1) (Homo sapiens, UniProt Q15418).
T5 construct: purchased ThermoFisher (SelectScreen, Z'-LYTE)
The essentials:
as §1

For assay [6], the target named is T6, MAPK3 (ERK1) (Homo sapiens, UniProt P27361).
T6 construct: purchased ThermoFisher (SelectScreen, Z'-LYTE)
The essentials:
as §1

The target in assay [7] is T7, DAPK3 (ZIPK) (Homo sapiens, UniProt O43293).
T7 construct: purchased ThermoFisher (SelectScreen, Z'-LYTE)
The method, boiled down: as §1

The target in assay [8] is T8, PDK1 (Homo sapiens, UniProt O15530).
T8 construct: purchased ThermoFisher (SelectScreen, Z'-LYTE)
T8 sequence (O15530 1-556): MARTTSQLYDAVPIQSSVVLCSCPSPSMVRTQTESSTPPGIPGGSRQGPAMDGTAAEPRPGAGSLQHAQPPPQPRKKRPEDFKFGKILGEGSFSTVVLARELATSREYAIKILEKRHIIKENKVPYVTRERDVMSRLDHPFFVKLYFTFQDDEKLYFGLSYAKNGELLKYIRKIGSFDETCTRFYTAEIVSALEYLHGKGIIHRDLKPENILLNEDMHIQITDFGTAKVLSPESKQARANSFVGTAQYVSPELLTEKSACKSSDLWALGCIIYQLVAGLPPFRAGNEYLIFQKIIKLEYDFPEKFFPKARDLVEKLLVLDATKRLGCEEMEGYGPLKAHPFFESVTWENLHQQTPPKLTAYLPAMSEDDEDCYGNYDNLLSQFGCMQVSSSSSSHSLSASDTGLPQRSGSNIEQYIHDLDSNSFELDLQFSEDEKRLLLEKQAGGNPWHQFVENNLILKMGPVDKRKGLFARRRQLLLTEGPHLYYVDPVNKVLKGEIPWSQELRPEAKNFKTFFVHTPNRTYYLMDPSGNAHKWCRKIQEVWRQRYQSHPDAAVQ
The conditions noted are these: 10 µM compound; ATP 100. The method, boiled down:
as §1

Assay [9] has as its target T9, PLK3 (Homo sapiens, UniProt Q9H4B4).
T9 construct: purchased ThermoFisher (SelectScreen, Z'-LYTE)
The method, boiled down: as §1

In assay [10] the target is T10, ABL1 (Homo sapiens, UniProt P00519).
T10 construct: purchased ThermoFisher (SelectScreen, Z'-LYTE)
The method, boiled down:
as §1

The target of assay [11] is T11, NEK1 (Homo sapiens, UniProt Q96PY6).
T11 construct: purchased ThermoFisher (SelectScreen, Z'-LYTE)
T11 sequence (Q96PY6 1-1258): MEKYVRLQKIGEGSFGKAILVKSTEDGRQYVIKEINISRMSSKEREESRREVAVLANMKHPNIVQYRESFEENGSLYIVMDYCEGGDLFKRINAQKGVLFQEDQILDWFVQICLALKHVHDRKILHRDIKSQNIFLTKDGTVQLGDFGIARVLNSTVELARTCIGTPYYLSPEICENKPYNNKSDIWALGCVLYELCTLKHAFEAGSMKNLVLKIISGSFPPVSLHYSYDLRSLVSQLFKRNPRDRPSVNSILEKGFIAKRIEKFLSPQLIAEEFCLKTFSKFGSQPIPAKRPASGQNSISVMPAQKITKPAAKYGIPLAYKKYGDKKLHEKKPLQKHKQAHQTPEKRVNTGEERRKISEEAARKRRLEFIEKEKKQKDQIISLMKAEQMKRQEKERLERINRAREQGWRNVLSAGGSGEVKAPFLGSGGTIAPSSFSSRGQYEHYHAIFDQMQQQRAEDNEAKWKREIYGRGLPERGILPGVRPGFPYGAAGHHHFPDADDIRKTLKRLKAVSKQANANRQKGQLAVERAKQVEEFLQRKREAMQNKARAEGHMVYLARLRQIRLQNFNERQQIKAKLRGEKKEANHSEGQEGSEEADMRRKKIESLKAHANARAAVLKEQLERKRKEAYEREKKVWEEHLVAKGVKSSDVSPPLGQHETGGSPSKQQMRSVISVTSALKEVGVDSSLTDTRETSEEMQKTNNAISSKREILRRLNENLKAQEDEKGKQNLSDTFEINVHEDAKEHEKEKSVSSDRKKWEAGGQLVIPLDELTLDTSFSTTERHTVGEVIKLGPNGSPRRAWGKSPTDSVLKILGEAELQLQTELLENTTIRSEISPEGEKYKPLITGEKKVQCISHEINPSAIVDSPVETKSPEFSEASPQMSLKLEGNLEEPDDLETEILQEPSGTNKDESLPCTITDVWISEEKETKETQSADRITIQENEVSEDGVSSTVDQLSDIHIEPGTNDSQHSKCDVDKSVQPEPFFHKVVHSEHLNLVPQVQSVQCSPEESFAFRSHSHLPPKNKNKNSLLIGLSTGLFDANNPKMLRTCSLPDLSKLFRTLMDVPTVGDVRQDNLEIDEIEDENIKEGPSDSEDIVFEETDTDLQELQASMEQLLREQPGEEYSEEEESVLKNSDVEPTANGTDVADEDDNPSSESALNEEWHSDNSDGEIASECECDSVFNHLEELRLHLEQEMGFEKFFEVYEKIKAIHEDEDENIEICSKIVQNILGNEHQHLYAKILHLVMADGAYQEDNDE
The essentials:
as §1

For assay [12], the target named is T12, KIT (Homo sapiens, UniProt P10721).
T12 construct: purchased ThermoFisher (SelectScreen, Z'-LYTE)
The essentials: as §1

For assay [13], the target named is T13, EPHA2 (Homo sapiens, UniProt P29317).
T13 construct: purchased ThermoFisher (SelectScreen, Z'-LYTE)
The essentials:
as §1

T9 sequence (Q9H4B4 whole entry): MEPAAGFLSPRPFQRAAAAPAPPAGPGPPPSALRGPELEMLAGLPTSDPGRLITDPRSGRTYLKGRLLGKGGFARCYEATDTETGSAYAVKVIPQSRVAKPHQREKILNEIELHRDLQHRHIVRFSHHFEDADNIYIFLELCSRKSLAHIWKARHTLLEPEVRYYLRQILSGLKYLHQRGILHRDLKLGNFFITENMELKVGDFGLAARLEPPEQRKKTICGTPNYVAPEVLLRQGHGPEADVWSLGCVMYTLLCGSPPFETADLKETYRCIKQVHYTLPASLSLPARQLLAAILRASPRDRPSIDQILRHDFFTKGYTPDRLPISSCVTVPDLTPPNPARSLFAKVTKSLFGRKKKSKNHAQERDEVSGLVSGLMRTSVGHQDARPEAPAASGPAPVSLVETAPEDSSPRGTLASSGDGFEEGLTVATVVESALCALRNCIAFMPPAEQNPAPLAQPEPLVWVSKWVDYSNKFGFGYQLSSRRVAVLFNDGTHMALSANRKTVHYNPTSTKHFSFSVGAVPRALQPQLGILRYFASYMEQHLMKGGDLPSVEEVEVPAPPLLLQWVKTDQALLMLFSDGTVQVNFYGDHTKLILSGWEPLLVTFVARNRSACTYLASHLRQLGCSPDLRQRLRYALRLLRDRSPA
T7 sequence (O43293 whole entry): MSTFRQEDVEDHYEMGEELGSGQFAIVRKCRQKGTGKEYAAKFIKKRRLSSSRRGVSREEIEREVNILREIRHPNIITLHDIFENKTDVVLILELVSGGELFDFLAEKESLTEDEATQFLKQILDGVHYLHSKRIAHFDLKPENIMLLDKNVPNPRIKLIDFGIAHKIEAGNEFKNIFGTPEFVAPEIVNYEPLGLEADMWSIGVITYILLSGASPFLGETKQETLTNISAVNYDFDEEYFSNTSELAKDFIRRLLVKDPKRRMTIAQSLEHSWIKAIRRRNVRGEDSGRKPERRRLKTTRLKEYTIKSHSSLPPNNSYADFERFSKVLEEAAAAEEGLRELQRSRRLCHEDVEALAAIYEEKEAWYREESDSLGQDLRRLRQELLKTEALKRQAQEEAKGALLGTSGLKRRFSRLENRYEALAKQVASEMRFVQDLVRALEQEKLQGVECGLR
T12 sequence (P10721 26-976): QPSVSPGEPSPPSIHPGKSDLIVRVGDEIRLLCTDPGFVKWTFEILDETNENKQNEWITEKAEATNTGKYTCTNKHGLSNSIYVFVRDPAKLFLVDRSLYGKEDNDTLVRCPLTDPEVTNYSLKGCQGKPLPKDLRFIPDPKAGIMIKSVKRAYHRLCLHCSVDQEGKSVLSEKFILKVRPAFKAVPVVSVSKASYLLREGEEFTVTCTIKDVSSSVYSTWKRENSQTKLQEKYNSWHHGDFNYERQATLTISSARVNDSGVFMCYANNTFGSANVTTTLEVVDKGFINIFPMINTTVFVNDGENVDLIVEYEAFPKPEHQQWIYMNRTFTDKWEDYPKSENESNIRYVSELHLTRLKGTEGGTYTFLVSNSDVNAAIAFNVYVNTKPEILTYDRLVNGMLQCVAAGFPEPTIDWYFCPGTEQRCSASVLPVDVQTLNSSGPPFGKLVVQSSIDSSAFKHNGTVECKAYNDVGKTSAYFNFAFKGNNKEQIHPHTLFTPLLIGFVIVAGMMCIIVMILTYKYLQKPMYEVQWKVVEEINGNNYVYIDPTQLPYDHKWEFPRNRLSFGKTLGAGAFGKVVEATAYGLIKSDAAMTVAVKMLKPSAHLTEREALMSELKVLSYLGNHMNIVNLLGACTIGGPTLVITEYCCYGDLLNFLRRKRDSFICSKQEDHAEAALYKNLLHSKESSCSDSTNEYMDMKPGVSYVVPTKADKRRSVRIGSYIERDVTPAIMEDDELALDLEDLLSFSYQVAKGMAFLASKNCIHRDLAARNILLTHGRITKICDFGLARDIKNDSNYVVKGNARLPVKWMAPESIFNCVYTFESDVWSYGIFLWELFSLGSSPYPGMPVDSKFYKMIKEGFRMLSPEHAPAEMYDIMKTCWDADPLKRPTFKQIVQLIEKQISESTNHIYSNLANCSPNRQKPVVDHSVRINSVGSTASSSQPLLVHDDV
T2 sequence (Q13882 whole entry): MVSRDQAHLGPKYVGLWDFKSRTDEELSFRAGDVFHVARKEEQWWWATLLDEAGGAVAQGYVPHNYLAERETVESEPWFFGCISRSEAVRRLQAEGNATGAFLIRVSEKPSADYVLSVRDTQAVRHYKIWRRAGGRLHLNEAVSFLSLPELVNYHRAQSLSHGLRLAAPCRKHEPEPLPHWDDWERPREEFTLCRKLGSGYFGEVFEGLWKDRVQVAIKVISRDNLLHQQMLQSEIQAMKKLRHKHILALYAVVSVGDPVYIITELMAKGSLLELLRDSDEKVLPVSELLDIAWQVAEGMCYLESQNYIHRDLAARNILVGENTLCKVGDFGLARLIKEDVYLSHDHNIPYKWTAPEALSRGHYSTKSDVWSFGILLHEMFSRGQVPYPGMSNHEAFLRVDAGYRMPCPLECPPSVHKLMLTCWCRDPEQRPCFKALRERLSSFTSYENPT
T5 sequence (Q15418 whole entry): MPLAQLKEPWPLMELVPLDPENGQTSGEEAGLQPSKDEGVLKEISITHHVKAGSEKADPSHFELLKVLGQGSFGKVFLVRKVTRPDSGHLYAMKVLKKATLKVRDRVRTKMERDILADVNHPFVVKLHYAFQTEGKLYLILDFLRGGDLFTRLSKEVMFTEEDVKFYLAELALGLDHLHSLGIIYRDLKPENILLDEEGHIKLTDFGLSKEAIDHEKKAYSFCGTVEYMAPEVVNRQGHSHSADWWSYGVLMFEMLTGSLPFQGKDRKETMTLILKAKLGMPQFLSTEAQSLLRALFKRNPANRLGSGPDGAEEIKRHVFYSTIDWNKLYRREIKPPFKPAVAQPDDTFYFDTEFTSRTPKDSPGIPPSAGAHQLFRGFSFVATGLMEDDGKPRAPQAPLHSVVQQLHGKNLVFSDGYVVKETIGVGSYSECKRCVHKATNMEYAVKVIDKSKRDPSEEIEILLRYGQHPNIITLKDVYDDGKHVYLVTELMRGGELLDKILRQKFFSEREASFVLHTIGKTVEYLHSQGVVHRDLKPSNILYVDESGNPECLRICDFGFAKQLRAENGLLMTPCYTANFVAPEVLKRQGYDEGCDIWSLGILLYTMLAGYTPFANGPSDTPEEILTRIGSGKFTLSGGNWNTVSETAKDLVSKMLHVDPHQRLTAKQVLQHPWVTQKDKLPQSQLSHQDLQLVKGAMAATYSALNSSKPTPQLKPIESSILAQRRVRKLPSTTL
T1 sequence (Q9NQU5 whole entry): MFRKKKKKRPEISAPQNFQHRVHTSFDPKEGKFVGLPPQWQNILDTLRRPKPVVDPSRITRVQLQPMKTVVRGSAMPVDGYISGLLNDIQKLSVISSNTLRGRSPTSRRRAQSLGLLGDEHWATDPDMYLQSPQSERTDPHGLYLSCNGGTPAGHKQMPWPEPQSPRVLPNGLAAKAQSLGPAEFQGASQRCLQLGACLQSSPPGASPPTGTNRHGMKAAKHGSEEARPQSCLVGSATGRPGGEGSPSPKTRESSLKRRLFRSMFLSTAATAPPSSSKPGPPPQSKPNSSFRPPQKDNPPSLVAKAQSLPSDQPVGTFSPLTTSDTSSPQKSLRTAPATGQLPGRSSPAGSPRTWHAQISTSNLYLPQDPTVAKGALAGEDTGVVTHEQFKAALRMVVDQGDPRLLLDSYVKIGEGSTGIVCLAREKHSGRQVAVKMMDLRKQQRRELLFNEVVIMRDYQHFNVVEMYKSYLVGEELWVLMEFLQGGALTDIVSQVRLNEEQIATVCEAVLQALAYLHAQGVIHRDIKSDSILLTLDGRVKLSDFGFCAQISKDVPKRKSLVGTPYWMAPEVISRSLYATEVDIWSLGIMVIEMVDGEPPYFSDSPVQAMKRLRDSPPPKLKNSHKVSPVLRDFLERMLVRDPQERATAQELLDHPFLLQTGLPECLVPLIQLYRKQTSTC
T13 sequence (P29317 24-976): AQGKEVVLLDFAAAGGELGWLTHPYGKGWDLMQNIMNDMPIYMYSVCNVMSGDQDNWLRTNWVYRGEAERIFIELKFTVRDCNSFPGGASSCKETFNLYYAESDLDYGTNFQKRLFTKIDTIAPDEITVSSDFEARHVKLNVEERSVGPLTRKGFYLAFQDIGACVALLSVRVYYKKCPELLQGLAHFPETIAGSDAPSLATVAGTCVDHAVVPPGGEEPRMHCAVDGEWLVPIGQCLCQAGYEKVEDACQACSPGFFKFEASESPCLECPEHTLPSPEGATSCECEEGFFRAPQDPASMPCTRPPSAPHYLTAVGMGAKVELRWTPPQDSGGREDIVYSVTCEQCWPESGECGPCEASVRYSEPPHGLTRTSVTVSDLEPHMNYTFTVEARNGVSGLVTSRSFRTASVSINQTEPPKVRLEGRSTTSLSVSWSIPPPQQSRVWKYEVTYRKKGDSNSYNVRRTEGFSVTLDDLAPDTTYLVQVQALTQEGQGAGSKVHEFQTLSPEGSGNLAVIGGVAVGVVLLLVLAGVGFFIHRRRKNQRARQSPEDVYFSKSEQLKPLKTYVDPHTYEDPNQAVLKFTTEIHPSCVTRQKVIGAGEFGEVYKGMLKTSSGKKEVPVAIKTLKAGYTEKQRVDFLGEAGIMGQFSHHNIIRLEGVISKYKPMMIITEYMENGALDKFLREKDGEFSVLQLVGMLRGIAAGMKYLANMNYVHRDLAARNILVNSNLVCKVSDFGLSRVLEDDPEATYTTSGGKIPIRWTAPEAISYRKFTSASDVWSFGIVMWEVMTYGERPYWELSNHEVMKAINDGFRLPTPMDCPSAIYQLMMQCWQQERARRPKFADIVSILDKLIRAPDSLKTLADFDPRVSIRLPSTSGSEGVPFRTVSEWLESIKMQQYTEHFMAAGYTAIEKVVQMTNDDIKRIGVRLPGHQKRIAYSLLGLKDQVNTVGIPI

On to “XMD8-92 [Compound 2, reference compound]”, for which the “PAK6 % Inhibition” value in assay [1] (10 µM compound, ATP Km app) is 33%. Moreover, the “PTK6 (Brk) % Inhibition” value in assay [2] (10 µM compound, ATP Km app) turned out to be 14%. In addition, the “JAK2 JH1 JH2 % Inhibition” value in [3] (10 µM compound, ATP Km app) was 52%. Also, in [4] (10 µM compound, ATP Km app), the “MAPKAPK3 % Inhibition” value is listed as 96%. The “RPS6KA1 (RSK1) % Inhibition” value in assay [5] (10 µM compound, ATP Km app) is on record as 5.45%. Further, the “MAPK3 (ERK1) % Inhibition” value in [6] (10 µM compound, ATP Km app) was determined as 8%. Further, the “DAPK3 (ZIPK) % Inhibition” value in assay [7] (10 µM compound, ATP Km app) was -0.894%. The “PDK1 % Inhibition” value in assay [8] is on record as 21%. Besides, in assay [9] (10 µM compound, ATP Km app), the “PLK3 % Inhibition” value is reported as 99%. Also, in assay [10] (10 µM compound, ATP Km app), the “ABL1 % Inhibition” value is on record as 72%. In addition, the “NEK1 % Inhibition” value in assay [11] (10 µM compound, ATP Km app) is on record as -9%. In assay [12] (10 µM compound, ATP Km app), the “KIT % Inhibition” value is recorded as -5.51%. In addition, the “EPHA2 % Inhibition” value in [13] (10 µM compound, ATP Km app) is -9.52%.
The term inhibition denotes the relative decrease from the control value, in per cent. Turning to `Cc1cc(Nc2nc(N)nn2C(=O)NC(C)C)ccc1Cl` [Compound 5], the inhibition at 10 µM in assay [1] was 14%; in assay [2] it was 5.47%; in assay [3], 25%; in [4], -5%; in assay [5], 36%; in [6] it was 7%. The inhibition at 10 µM is -7.41% in assay [7]; 8% in assay [8]; 18% in assay [9]; 57% in assay [10]; 21% in assay [11]; 11% in assay [12]. Besides, the inhibition at 10 µM in assay [13] was -1.47%.
As for `Cc1ncc(-c2nc(Nc3ccc(C(=O)NCCN4CCCCC4)cc3)ncc2F)n1C(C)C` [Compound 3], the inhibition at 10 µM in assay [1] was determined as 27%; in assay [2], 61%; in [3], 76%; in assay [4], 18%; in [5], 69%; in assay [6] it was 40%. Besides, the inhibition at 10 µM in assay [7] was 78%; in [8] it was 50%; in assay [9], 73%; in assay [10], 91%; in assay [11], 6.39%; in assay [12], 31%. Besides, the inhibition at 10 µM in assay [13] came to 69%.

For the origin of these results see PMC4854315, “Discovery of a novel allosteric inhibitor-binding site in ERK5: comparison with the canonical kinase hinge ATP-binding site” (Acta Crystallographica. Section D, Structural Biology, 2016).
